≈ marks a conversion by molar mass, not a printed value. Where two headings read alike, the source gives them in different places.
Tests used:
[1] = test system: Staphylococcus aureus X1.1; experiment: MIC, standard agar-dilution assay, S. aureus X1.1; type: cell-based
Experimental: (§1) The MIC's in Table II were determined by standard agar-dilution assays. The MIC's in Table III were obtained using conventional broth-dilution microtiter tests.

[2] = test system: Staphylococcus aureus V41; experiment: MIC, standard agar-dilution assay, S. aureus V41; type: cell-based; details: Staphylococcus aureus, V41
Experimental: as §1

[3] = test system: Staphylococcus aureus X400; experiment: MIC, standard agar-dilution assay, S. aureus X400; type: cell-based
Experimental: as §1

[4] = test system: Staphylococcus aureus S13E; experiment: MIC, standard agar-dilution assay, S. aureus S13E; type: cell-based
Experimental: as §1

[5] = test system: Staphylococcus epidermidis EPI1; experiment: MIC, standard agar-dilution assay, S. epidermidis EPI1; type: cell-based
Experimental: as §1

[6] = test system: Staphylococcus epidermidis 222; experiment: MIC, standard agar-dilution assay, S. epidermidis 222; type: cell-based
Experimental: as §1

[7] = test system: Streptococcus pyogenes C203; experiment: MIC, standard agar-dilution assay, S. pyogenes C203; type: cell-based; details: Streptococcus pyogenes, C203
Experimental: as §1

[8] = test system: Streptococcus pneumoniae Park I; experiment: MIC, standard agar-dilution assay, S. pneumoniae Park I; type: cell-based; details: Streptococcus pneumoniae
Experimental: as §1

[9] = test system: Streptococcus Group D X66; experiment: MIC, standard agar-dilution assay, Streptococcus Group D X66; type: cell-based
Experimental: as §1

[10] = test system: Streptococcus Group D 2041; experiment: MIC, standard agar-dilution assay, Streptococcus Group D 2041; type: cell-based; details: GROUPD2041
Experimental: as §1

[11] = test system: Haemophilus influenzae C.L.; experiment: MIC, standard agar-dilution assay, H. influenzae C.L.; type: cell-based
Experimental: as §1

[12] = test system: Haemophilus influenzae 76; experiment: MIC, standard agar-dilution assay, H. influenzae 76; type: cell-based
Experimental: as §1

Escherichia coli EC14 = experiment: MIC, standard agar-dilution assay, E. coli EC14; type: cell-based; details: agar-dilution, read-out: MIC
Experimental: as §1

[13] = test system: Klebsiella pneumoniae X68; experiment: MIC, standard agar-dilution assay, K. pneumoniae X68; type: cell-based; details: agar-dilution, read-out: MIC
Experimental: as §1

[14] = test system: Pseudomonas aeruginosa X239; experiment: MIC, standard agar-dilution assay, P. aeruginosa X239; type: cell-based; details: agar-dilution, read-out: MIC
Experimental: as §1

[15] = test system: Streptococcus pyogenes C203; experiment: Protection of mice experimentally infected with Streptococcus pyogenes C203; type: in vivo; details: Streptococcus pyogenes, doses given 1 and 4 hours postinfection, read-out: ED50
Experimental: The formula 1 compounds have shown in vivo antimicrobial activity against experimentally-induced infections in laboratory animals. When two doses of test compound were administered to mice experimentally infected with Streptococcus pyogenes C203, the activity observed was measured as an ED50 value [effective dose in mg/kg to protect 50% of the test animals: see Warren Wick, et al., J. Bacteriol. 81, 233-235 (1961)].
^a mg/kg × 2; doses given 1 and 4 hours postinfection

[16] = agar-dilution, ampicillin-sensitive strain, read-out: MIC
[17] = agar-dilution, ampicillin-resistant strain, read-out: MIC

SMILES | MIC [1] [µg/mL] | MIC [2] [µg/mL] | MIC [3] [µg/mL] | MIC [4] [µg/mL] | MIC [5] [µg/mL] | MIC [6] [µg/mL] | MIC [8] [µg/mL] | MIC [9] [µg/mL] | MIC ([10]; agar-dilution, read-out: MIC) [µg/mL] | MIC [11, 16] [µg/mL] | MIC [12, 17] [µg/mL] | MIC (Escherichia coli EC14) [µg/mL] | MIC [13] [µg/mL] | MIC [14] [µg/mL] | MIC [7] [µg/mL] | MIC [10] [µg/mL] | other results
CCC1OC(=O)CC(O)C(C)C(OC2OC(C)C(O)C(N(C)C)C2O)C(CCOc2ccccc2)CC(C)C(=O)C=CC(C)=CC1COC1OC(C)C(NC(C)=O)C(OC)C1OC (stereo not shown) [Compound 37, 4"-Acetylamino-4"-deoxy-20-DH-20-O-phenyl-desmycosin] | 8 (≈ 8.98 µM) | 4 (≈ 4.49 µM) | 4 (≈ 4.49 µM) | 4 (≈ 4.49 µM) | 8 (≈ 8.98 µM) | 8 (≈ 8.98 µM) | 4 (≈ 4.49 µM) | 64 (≈ 71.8 µM) | 128 (≈ 144 µM) | > 128 | > 128 | > 128 | > 128 | > 128 |  |  | MIC ([7]; agar-dilution, read-out: MIC): 2 µg/mL (≈ 2.24 µM)
CCC1OC(=O)CC(O)C(C)C(OC2OC(C)C(O)C(N(C)C)C2O)C(CCOc2ccccc2)CC(C)C(=O)C=CC(C)=CC1COC1OC(C)/C(=N/OC)C(OC)C1OC (stereo not shown) [Compound 7, 4"-O-Methoxyimino-20-DH-20-O-phenyl-desmycosin] | 1 (≈ 1.14 µM) | 1 (≈ 1.14 µM) | 1 (≈ 1.14 µM) | 1 (≈ 1.14 µM) | 1 (≈ 1.14 µM) | 1 (≈ 1.14 µM) | 0.5 (≈ 0.57 µM) |  | 4 (≈ 4.56 µM) | > 128 | > 128 | > 128 | > 128 | > 128 |  |  | MIC ([7]; agar-dilution, read-out: MIC): 2 µg/mL (≈ 2.28 µM); MIC ([9]; agar-dilution, read-out: MIC): 2 µg/mL (≈ 2.28 µM)
CCC1OC(=O)CC(O)C(C)C(OC2OC(C)C(O)C(N(C)C)C2O)C(CCOc2ccccc2)CC(C)C(=O)C=CC(C)=CC1COC1OC(C)C=C(OC)C1OC (stereo not shown) [Compound 54, 3",4"-Anhydro-20-DH-20-O-phenyl-desmycosin] | 1 (≈ 1.2 µM) | 1 (≈ 1.2 µM) | 0.5 (≈ 0.601 µM) | 1 (≈ 1.2 µM) | 1 (≈ 1.2 µM) | 0.25 (≈ 0.3 µM) | 4 (≈ 4.81 µM) | 8 (≈ 9.61 µM) |  | 128 (≈ 154 µM) | 128 (≈ 154 µM) | > 128 | > 128 | > 128 | 4 (≈ 4.81 µM) | 8 (≈ 9.61 µM) | 
CCC1OC(=O)CC(O)C(C)C(OC2OC(C)C(O)C(N(C)C)C2O)C(CCOc2ccccc2)CC(C)C(=O)C=CC(C)=CC1COC1OC(C)C(OC)C(O)C1OC (stereo not shown) [Compound 50, 4"-O-Methyl-20-DH-20-O-phenyl-lactenocin] | 0.5 (≈ 0.588 µM) | 0.5 (≈ 0.588 µM) | 0.5 (≈ 0.588 µM) | 0.5 (≈ 0.588 µM) | 0.5 (≈ 0.588 µM) | 0.25 (≈ 0.294 µM) | 8 (≈ 9.41 µM) | 16 (≈ 18.8 µM) |  | 128 (≈ 151 µM) |  | > 128 | > 128 | > 128 | 4 (≈ 4.71 µM) | 32 (≈ 37.6 µM) | ED50 ([15]; C203, oral): 75.3 mg/kg; ED50 ([15]; C203, sc, subcutaneous): > 10 mg/kg
CCC1OC(=O)CC(O)C(C)C(OC2OC(C)C(OC(C)=O)C(N(C)C)C2OC(C)=O)C(CCOc2ccccc2)CC(C)C(=O)C=CC(C)=CC1COC1OC(C)C([n+]2ccccc2)C(OC)C1OC (stereo not shown) [Compound 22, 2',4'-Di-O-acetyl-4"-deoxy-20-DH-20-O-phenyl-4"-pyridinium-desmycosin] | 2 | 4 | 4 | 4 | 2 | 4 | 2 | 16 |  |  |  | > 128 | > 128 | > 128 | 4 | 16 | MIC [11]: 64 µg/mL; MIC [12]: 32 µg/mL
CCC1OC(=O)CC(O)C(C)C(OC2OC(C)C(O)C(N(C)C)C2O)C(CCOc2ccccc2)CC(C)C(=O)C=CC(C)=CC1COC1OC(C)/C(=N\OC)C(OC)C1OC (stereo not shown) [Compound 6, 4"-O-Methoxyimino-20-DH-20-O-phenyl-desmycosin] | 2 (≈ 2.28 µM) | 2 (≈ 2.28 µM) | 2 (≈ 2.28 µM) | 2 (≈ 2.28 µM) | 2 (≈ 2.28 µM) | 2 (≈ 2.28 µM) | 1 (≈ 1.14 µM) | 4 (≈ 4.56 µM) |  | > 128 | > 128 | > 128 | > 128 | > 128 | 4 (≈ 4.56 µM) | 8 (≈ 9.12 µM) | 
CCC1OC(=O)CC(O)C(C)C(OC2OC(C)C(OC(C)=O)C(N(C)C)C2OC(C)=O)C(CCOc2ccccc2)CC(C)C(=O)C=CC(C)=CC1COC1OC(C)C(N)C(OC)C1OC (stereo not shown) [Compound 20, 2',4'-Di-O-acetyl-4"-amino-4"-deoxy-20-DH-20-O-phenyldesmycosin] | 0.25 (≈ 0.268 µM) | 0.25 (≈ 0.268 µM) | 0.5 (≈ 0.536 µM) | 0.5 (≈ 0.536 µM) | 0.5 (≈ 0.536 µM) | 0.25 (≈ 0.268 µM) | 1 (≈ 1.07 µM) | 4 (≈ 4.29 µM) |  |  |  | > 128 | > 128 | > 128 | 0.25 (≈ 0.268 µM) | 8 (≈ 8.57 µM) | MIC [11]: 16 µg/mL (≈ 17.1 µM); MIC [12]: 16 µg/mL (≈ 17.1 µM)
CCC1OC(=O)CC(O)C(C)C(OC2OC(C)C(OC(C)=O)C(N(C)C)C2OC(C)=O)C(CCOc2ccccc2)CC(C)C(=O)C=CC(C)=CC1COC1OC(C)C(OS(=O)(=O)C(F)(F)F)C(OC)C1OC (stereo not shown) [Compound 40, 2',4'-Di-O-acetyl-20-DH-20-O-phenyl-4"-O-(trifluoromethanesulfonyl)-desmycosin] | 2 (≈ 1.88 µM) | 2 (≈ 1.88 µM) | 2 (≈ 1.88 µM) | 2 (≈ 1.88 µM) | 2 (≈ 1.88 µM) | 2 (≈ 1.88 µM) | 8 (≈ 7.5 µM) |  | > 128 | > 128 | > 128 | > 128 | > 128 | > 128 | 2 (≈ 1.88 µM) |  | MIC ([9]; agar-dilution, read-out: MIC): > 128 µg/mL
CCCN(CCC)C1C(C)OC(OCC2C=C(C)C=CC(=O)C(C)CC(CCOc3ccccc3)C(OC3OC(C)C(O)C(N(C)C)C3O)C(C)C(O)CC(=O)OC2CC)C(OC)C1OC (stereo not shown) [Compound 48, 4"-Deoxy-20-DH-20-O-phenyl-4"-[di-(n-propyl)amino]desmycosin] | 16 (≈ 17.1 µM) | 16 (≈ 17.1 µM) | 16 (≈ 17.1 µM) | 16 (≈ 17.1 µM) | 16 (≈ 17.1 µM) | 16 (≈ 17.1 µM) | 4 (≈ 4.29 µM) | 16 (≈ 17.1 µM) |  | > 128 | > 128 | > 128 | > 128 | > 128 | 8 (≈ 8.57 µM) | 16 (≈ 17.1 µM) | 
CCC1OC(=O)CC(O)C(C)C(OC2OC(C)C(O)C(N(C)C)C2O)C(CCOc2ccccc2)CC(C)C(=O)C=CC(C)=CC1COC1OC(C)C(OCCOC)C(OC)C1OC (stereo not shown) [Compound 44, 20-DH-4"-(2-Methoxyethoxy)-20-O-phenyl-desmycosin] | 2 (≈ 2.2 µM) | 2 (≈ 2.2 µM) | 2 (≈ 2.2 µM) | 2 (≈ 2.2 µM) | 2 (≈ 2.2 µM) | 2 (≈ 2.2 µM) | 4 (≈ 4.4 µM) | 8 (≈ 8.81 µM) |  | > 128 | > 128 | > 128 | > 128 | > 128 | 4 (≈ 4.4 µM) | 32 (≈ 35.2 µM) | 
